Format in all cases: cell-based
Assay [1] addresses T1, N-cadherin (Homo sapiens, UniProt P19022).
T1 construct: Fc (C); purchased R&D Systems
Nature of the assay: RGC neurite outgrowth on N-cadherin substrate (antagonist screen). The note with it: ADH-1 vs vehicle control (FIG. 16A). As to the method: Sterile 35 mm tissue culture dishes for retinal explants were coated with nitrocellulose in methanol and allowed to dry, before spreading 0.04-0.045 μg/plate of human N-cadherin-Fc (R&D Systems, Minneapolis, Minn.) across the center of each dish. Remaining binding sites on the nitrocellulose were blocked with 2% bovine serum albumin (BSA; Sigma, St. Louis, Mo.) in calcium/magnesium free phosphate buffer (CMF), and the dishes were rinsed with RPMI-1640 medium (HyClone, Logan, Utah). Cultures of retinal explants from embryonic day 8 chick were made as previously described in. Retinal explants were grown in RPMI-1640, 10% fetal bovine serum (HyClone), 2% chick serum (Invitrogen, Carlsbad, Calif.), 100 U/ml penicillin, 0.1 mg/ml streptomycin and 0.025 μg/ml amphotericin (Sigma). […] Neurite outgrowth was evaluated approximately 20 hours after plating. […] If outgrowth was affected, subsequent experiments determined the minimum concentration to affect outgrowth. […]
Neurite outgrowth was examined on a Nikon TE-200 inverted microscope (Tokyo, Japan), using a 10× objective. […] Subsequently measurements of neurite length and density were quantitated using the images. Length of the five longest neurites per explant was measured using MetaMorph version 6.3r4 (Molecular Devices, Downington Pa.). […] Control and experimental conditions were analyzed using the same thresholding parameters. […]

Assay [2] concerns the target T1, N-cadherin. Nature of the assay: LN-229 glioblastoma cell adhesion to N-cadherin substrate. The following applies: dose of 1 mM, 2 h adhesion. As to the method: (§1) Sterile 35 mm tissue culture dishes were coated with nitrocellulose in methanol and allowed to dry. Distinct spots, containing 50 ng of either purified Laminin (Sigma) or N-cadherin-Fc (R&D Systems), were made by spotting 10 μl of protein solution on the nitrocellulose-coated tissue culture dishes. Each dish contained two distinct spots of both Laminin and N-cadherin-Fc. After a 20-min incubation at room temperature, the protein solutions were aspirated. Remaining binding sites on the nitrocellulose were blocked with 2% BSA in PBS, and the dishes were rinsed with DMEM (Invitrogen).
(§2) LN-229 (American Type Culture Collection, Manassus, Va.) cells plated the previous day in 100 mm tissue culture dishes and grown to 80% confluence were released with 2 mM EDTA in CMF. 4×10^5 cells were added to each tissue culture dish in the presence of N-cadherin peptidomimetic small molecules, reconstituted in either DMSO or 0.3% cyclodextrin, and diluted in DMEM supplemented with 10% fetal bovine serum (HyClone). […]
(§3) Adherent cells were detected by phase contrast light microscopy using a 20× objective on a Nikon TE-200 inverted microscope. […] The number of adherent cells per image was determined using threshold parameters in MetaMorph that highlighted individual cells that spread on the substrate spots. […] Data from control and experimental conditions were evaluated using the same thresholding parameters. […]

A further assay deals with Laminin. The assay can be described thus: LN-229 glioblastoma cell adhesion to Laminin substrate (specificity control). The following applies: 1 mM ADH-1, compared to control. As to the method:
as §1, §2, §3

T1 sequence (P19022 with tags, fused parts or gaps limits assumed): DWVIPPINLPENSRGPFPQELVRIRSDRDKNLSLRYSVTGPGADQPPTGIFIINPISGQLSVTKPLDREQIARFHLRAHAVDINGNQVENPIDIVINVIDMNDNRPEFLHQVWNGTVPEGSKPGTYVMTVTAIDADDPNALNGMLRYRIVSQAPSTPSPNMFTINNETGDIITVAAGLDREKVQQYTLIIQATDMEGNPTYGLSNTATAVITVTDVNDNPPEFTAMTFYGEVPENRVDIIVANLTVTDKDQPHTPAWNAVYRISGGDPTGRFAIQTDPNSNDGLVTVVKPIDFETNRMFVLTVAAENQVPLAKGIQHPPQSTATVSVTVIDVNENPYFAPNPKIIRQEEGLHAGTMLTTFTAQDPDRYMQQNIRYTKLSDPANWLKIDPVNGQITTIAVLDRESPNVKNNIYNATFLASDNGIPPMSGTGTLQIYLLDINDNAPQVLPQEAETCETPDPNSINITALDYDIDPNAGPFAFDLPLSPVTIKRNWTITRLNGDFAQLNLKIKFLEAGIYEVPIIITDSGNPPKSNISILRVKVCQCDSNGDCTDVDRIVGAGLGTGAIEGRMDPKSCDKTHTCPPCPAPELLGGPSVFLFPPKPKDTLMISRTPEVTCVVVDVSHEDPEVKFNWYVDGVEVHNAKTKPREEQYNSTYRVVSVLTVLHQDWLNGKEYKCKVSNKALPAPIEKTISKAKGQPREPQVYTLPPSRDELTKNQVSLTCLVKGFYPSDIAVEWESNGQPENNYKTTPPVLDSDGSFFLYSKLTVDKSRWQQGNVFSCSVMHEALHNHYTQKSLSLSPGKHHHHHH

As for `CC(=O)N[C@H]1CSSC[C@@H](C(N)=O)NC(=O)[C@H](C(C)C)NC(=O)[C@H](C)NC(=O)[C@H](Cc2c[nH]cn2)NC1=O` [ADH-1, N-Ac-CHAVC-NH2], at N-cadherin [1], the “effect on RGC neurite outgrowth on a substrate of N-cadherin” value was “eliminate RGC neurite outgrowth”. Moreover, the “adhesion of LN-229 cells to an N-cadherin substrate” value on N-cadherin [2] is on record as 46 % of control. The “LN-229 adhesion to Laminin” value in the assay with Laminin was “unaffected”.

Source of the values: US9599603B2, “Methods and compositions for modulating adhesion and migration of cadherin expressing cells” (Case Western Reserve University, priority 2008, dated 2017).
